Legend:
[1] = molecular target: T1, kinase domain protein of RC kinase (RCK) (Homo sapiens, UniProt Q56UN5); assay: Kinase competition binding assay (Kd, qPCR readout), RC kinase; conditions: Kd class, read-out: RCK Activity Level
T1 construct: made in house; host or cells: E. coli BL21-derived host (T7 phage) or HEK-293
T1 sequence (Q56UN5 1061-1324 limits assumed): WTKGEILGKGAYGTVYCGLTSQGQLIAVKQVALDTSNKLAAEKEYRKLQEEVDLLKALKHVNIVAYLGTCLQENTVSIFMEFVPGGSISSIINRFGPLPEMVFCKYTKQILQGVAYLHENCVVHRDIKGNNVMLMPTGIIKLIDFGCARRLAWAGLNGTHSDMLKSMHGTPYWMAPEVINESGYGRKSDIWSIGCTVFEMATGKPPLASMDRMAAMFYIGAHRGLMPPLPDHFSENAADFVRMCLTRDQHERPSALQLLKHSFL
Method: (§1) For most assays, kinase-tagged T7 phage strains were prepared in an E. coli host derived from the BL21 strain. E. coli were grown to log-phase and infected with T7 phage and incubated with shaking at 32° C. until lysis. The lysates were centrifuged and filtered to remove cell debris. The remaining kinases were produced in HEK-293 cells and subsequently tagged with DNA for quantitative PCR (qPCR) detection.
(§2) Streptavidin-coated magnetic beads were treated with biotinylated small molecule ligands for 30 minutes at room temperature to generate affinity resins for kinase assays. The liganded beads were blocked with excess biotin and washed with blocking buffer (SeaBlock (Pierce), 1% BSA, 0.05% Tween 20, 1 mM DTT) to remove unbound ligand and to reduce nonspecific binding. Binding reactions were assembled by combining kinases, liganded affinity beads, and test compounds in 1× binding buffer (20% SeaBlock, 0.17×PBS, 0.05% Tween 20, 6 mM DTT). All reactions were performed in polystyrene 96-well plates in a final volume of 0.135 mL. The assay plates were incubated at room temperature with shaking for 1 hour and the affinity beads were washed with wash buffer (1×PBS, 0.05% Tween 20). The beads were then re-suspended in elution buffer (1×PBS, 0.05% Tween 20, 0.5 μM non-biotinylated affinity ligand) and incubated at room temperature with shaking for 30 minutes. The kinase concentration in the eluates was measured by qPCR.
(§3) An 11-point 3-fold serial dilution of each test compound was prepared in 100% DMSO at 100× final test concentration and subsequently diluted to 1× in the assay (final DMSO concentration=1%). Most Kd values were determined using a compound top concentration=30,000 nM. If the initial Kd determined was <0.5 nM, (the lowest concentration tested), the measurement was repeated with a serial dilution starting at a lower top concentration. A more detailed description of this assay may be found in Fabian, M. A. et al. Nat. Biotechnol. 2005, 23, 329-336, which is incorporated herein in its entirety.
(§4) The biological results of inhibition of the kinase domain protein of RC kinase (RCK) and JAK2 and JAK3 are summarized in Tables 2 and 3, wherein A represents a Kd of <50 nM; B represents 50 nM<Kd<100 nM; C represents 100 nM<Kd<1000 nM; and D represents a Kd>1000 nM.

JAK2 = molecular target: T2, JAK2 (Homo sapiens, UniProt O60674); assay: Kinase competition binding assay (Kd, qPCR readout), JAK2; conditions: for Kd: Kd class, JAK2, read-out: JAK2 Activity Level; for RCK:JAK2 selectivity ratio: ratio Kd (JAK2): Kd(RCK)
T2 construct: made in house; host or cells: E. coli BL21-derived host (T7 phage) or HEK-293
Method: as §1, §2, §3, §4
Additionally, RCK:JAK2 selectivity, as measured by the ratio Kd (JAK2): Kd(RCK) is represented as follows: A represents Kd (JAK2): Kd (RCK)>100; B represents 10<Kd(JAK2): Kd (RCK)<100; C represents 1<Kd (JAK2): Kd (RCK)<10; and D represents Kd(JAK2): Kd (RCK)<1.

JAK3 = molecular target: T3, JAK3 (Homo sapiens, UniProt P52333); assay: Kinase competition binding assay (Kd, qPCR readout), JAK3; conditions: for Kd: Kd class, JAK3, read-out: JAK3 Activity Level; for RCK:JAK3 selectivity ratio: ratio Kd (JAK3): Kd (RCK)
T3 construct: made in house; host or cells: E. coli BL21-derived host (T7 phage) or HEK-293
Method: as §1, §2, §3, §4
Similarly, RCK:JAK3 selectivity, as measured by the ratio Kd (JAK3): Kd (RCK) is represented as follows: A represents Kd (JAK3): Kd (RCK)>100; B represents 10<Kd (JAK3): Kd (RCK)<100; C represents 1<Kd (JAK3): Kd (RCK)<10; and D represents Kd (JAK3): Kd(RCK)<1.

T3 sequence (P52333 811-1124 limits assumed): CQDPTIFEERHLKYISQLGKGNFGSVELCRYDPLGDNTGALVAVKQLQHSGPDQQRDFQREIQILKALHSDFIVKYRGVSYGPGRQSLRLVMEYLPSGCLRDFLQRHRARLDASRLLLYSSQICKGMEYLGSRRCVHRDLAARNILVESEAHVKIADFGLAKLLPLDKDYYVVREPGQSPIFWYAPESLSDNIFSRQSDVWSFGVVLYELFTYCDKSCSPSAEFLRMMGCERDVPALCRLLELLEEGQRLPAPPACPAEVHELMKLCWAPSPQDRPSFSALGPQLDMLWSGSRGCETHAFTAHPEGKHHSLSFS
T2 sequence (O60674 840-1132 limits assumed): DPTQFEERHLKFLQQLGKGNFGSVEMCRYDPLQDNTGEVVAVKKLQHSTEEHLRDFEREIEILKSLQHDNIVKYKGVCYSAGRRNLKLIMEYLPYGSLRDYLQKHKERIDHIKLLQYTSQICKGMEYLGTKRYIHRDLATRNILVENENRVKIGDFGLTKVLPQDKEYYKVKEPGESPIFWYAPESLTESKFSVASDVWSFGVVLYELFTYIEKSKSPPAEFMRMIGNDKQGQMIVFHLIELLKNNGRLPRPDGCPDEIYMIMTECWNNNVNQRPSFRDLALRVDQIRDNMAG

Compound	Kd [1] [nM]	Kd (JAK2) [nM]	RCK:JAK2 selectivity ratio (JAK2)	Kd (JAK3) [nM]	RCK:JAK3 selectivity ratio (JAK3)
CN(C)c1ccc(Nc2n[nH]c(NCc3ccc(O)cc3)c2C(N)=O)cc1 [reference compound]	100 to 1000	< 50	D (D represents Kd(JAK2): Kd (RCK)<1)	100 to 1000	C (C represents 1<Kd (JAK3): Kd (RCK)<10)
Cc1cc(CNc2[nH]nc(Nc3ccc(-c4ccccc4)cc3)c2C(N)=O)cc(C)c1O [Compound 18, 3-([1,1′-biphenyl]-4-ylamino)-5-((4-hydroxy-3,5-dimethylbenzyl)amino)-1H-pyrazole-4-carboxamide]	> 1000	> 1000	C (C represents 1<Kd (JAK2): Kd (RCK)<10)	> 1000	C (C represents 1<Kd (JAK3): Kd (RCK)<10)
Cc1cc(Nc2n[nH]c(NCc3cc(C)c(O)c(C)c3)c2C(N)=O)ccc1N1CCCCC1 [Compound 30, 5-((4-hydroxy-3,5-dimethylbenzyl)amino)-3-((3-methyl-4-(piperidin-1-yl)phenyl)amino)-1H-pyrazole-4-carboxamide]	50 to 100	> 1000	B (B represents 10<Kd(JAK2): Kd (RCK)<100)	> 1000	B (B represents 10<Kd (JAK3): Kd (RCK)<100)
COc1cccc(Nc2n[nH]c(NCc3ccc(O)cc3)c2C(N)=O)c1 [reference compound]	< 50	< 50	D (D represents Kd(JAK2): Kd (RCK)<1)	< 50	D (D represents Kd (JAK3): Kd(RCK)<1)
Cc1cc(CNc2[nH]nc(Nc3ccc(N4C[C@@H](C)O[C@@H](C)C4)c(Cl)c3)c2C(N)=O)cc(C)c1O [Compound 15, 3-((3-chloro-4-(2,6-dimethylmorpholino)phenyl)amino)-5-((4-hydroxy-3,5-dimethylbenzyl)amino)-1H-pyrazole-4-carboxamide]	50 to 100	> 1000	B (B represents 10<Kd(JAK2): Kd (RCK)<100)	> 1000	B (B represents 10<Kd (JAK3): Kd (RCK)<100)
NC(=O)c1c(Nc2ccc(N3CCOCC3)cc2)n[nH]c1NCc1ccc(O)cc1 [reference compound]	< 50	< 50	D (D represents Kd(JAK2): Kd (RCK)<1)	< 50	C (C represents 1<Kd (JAK3): Kd (RCK)<10)
NC(=O)c1c(Nc2ccc(N3CCN(C(=O)N4CCCC4)CC3)cc2)n[nH]c1NCc1ccc(O)cc1 [reference compound]	< 50	< 50	D (D represents Kd(JAK2): Kd (RCK)<1)	< 50	C (C represents 1<Kd (JAK3): Kd (RCK)<10)
CC1CCN(c2ccc(Nc3n[nH]c(NCc4ccc(O)cc4)c3C(N)=O)cc2)CC1 [reference compound]	< 50	< 50	D (D represents Kd(JAK2): Kd (RCK)<1)	50 to 100	C (C represents 1<Kd (JAK3): Kd (RCK)<10)
NC(=O)c1c(Nc2ccc(N3CCCCC3)cn2)n[nH]c1NCc1ccc(O)cc1 [reference compound]	< 50	< 50	D (D represents Kd(JAK2): Kd (RCK)<1)	< 50	D (D represents Kd (JAK3): Kd(RCK)<1)
NC(=O)c1c(Nc2ccc3[nH]ncc3c2)n[nH]c1NCc1ccc(O)cc1 [reference compound]	50 to 100	< 50	D (D represents Kd(JAK2): Kd (RCK)<1)	< 50	D (D represents Kd (JAK3): Kd(RCK)<1)
CC(C)C1CCN(c2ccc(Nc3n[nH]c(NCc4ccc(O)cc4)c3C(N)=O)cc2)CC1 [reference compound]	50 to 100	100 to 1000	C (C represents 1<Kd (JAK2): Kd (RCK)<10)	100 to 1000	C (C represents 1<Kd (JAK3): Kd (RCK)<10)
Cc1cc(Nc2n[nH]c(NCc3ccc(O)cc3)c2C(N)=O)ccc1N1CCOCC1	< 50				

Source: patent publication US9730914B2, “3,5-diaminopyrazole kinase inhibitors” (Axikin Pharmaceuticals, Inc., priority 2014, dated 2017)
